# Test results taken from PubChem BioAssay AID588780 (Sanford-Burnham Center for Chemical Genomics, 2011).
# Active and inactive are the calls of the source.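 How the source made its calls: active means compounds whose fitted half-maximal concentration in the cell-protection dose series is at or below a set limit; inactive means the rest.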
# Test system: H9c2 cardiomyocytes, 2-deoxyglucose stress, ATP luminescence, 2 h
# Experiment: H9c2 cell survival under 2-deoxyglucose stress – uHTS hits, dose response (AID 588780)
row,Structure (SMILES),IC50
1,CC(=O)c1ccc(C(=O)Nc2nnc(-c3ccc(Cl)cc3)o2)cc1,15.7 µM
2,COc1cc(C(=O)Nc2cccc(-c3nnc(-c4ccco4)o3)c2)ccc1OC(C)=O,> 79 µM (inactive)
3,CCCCc1cc(=O)oc2cc(O)ccc12,> 79 µM (inactive)
4,Cc1ncc(CO)c2c1Oc1nc(-c3ccccc3)nc(SCC(=O)N3CCCCC3)c1C2,> 79 µM (inactive)
5,O=C1OCCN1C(=O)[C@H]1[C@H](c2ccc([N+](=O)[O-])cc2)C(c2ccccc2)=NN1c1ccc(Br)cc1,> 79 µM (inactive)
6,CC(OC(=O)Cn1[nH]c(=O)c2ccccc2c1=O)C(=O)Nc1ccc(F)cc1Cl (centres undefined),> 79 µM (inactive)
7,O=C(NNC(=O)C(c1ccccc1)c1ccccc1)c1ccccn1,> 79 µM (inactive)
8,O=C(CSc1nnc(-c2cccnc2)o1)c1cc2ccccc2oc1=O,67 µM (inactive)
9,O=C(N/N=C/c1ccccn1)c1cccc([N+](=O)[O-])c1,> 79 µM (inactive)
10,COc1ccc(NCc2n[nH]c(=O)c3ccccc23)cc1,> 79 µM (inactive)
11,COc1ccc(CCNc2nc(-c3cccnc3)nc3ccccc23)cc1OC,> 79 µM (inactive)
12,CCOc1cccc(-c2c(C(=O)N/N=C(\C)c3ccccn3)nnn2-c2nonc2N)c1,> 79 µM (inactive)
13,Cc1ccc(-c2nn3c(-c4ccco4)nnc3c3ccccc23)cc1S(=O)(=O)NCC1CCCO1 (centres undefined),23.3 µM
14,O=c1cc(-c2cccnc2)oc2c1ccc1ccccc12,12.6 µM
15,CNC(=O)COC(=O)/C=C/c1cn(-c2ccccc2)nc1-c1ccc(C)o1,11.6 µM
16,Cc1cc(C)cc(OCC(=O)Nc2cccc(-c3nc4ncccc4o3)c2)c1,> 79 µM (inactive)
17,COc1ccc(N(Cc2cc3cc(OC)ccc3[nH]c2=O)C(=O)c2cccnc2)cc1,> 79 µM (inactive)
18,CCN(CC(=O)Nc1ccc(OC)cc1)C(=O)CCc1nc2ccccc2c(=O)[nH]1,> 79 µM (inactive)
19,COc1ccc(-c2cc(-c3nnc(COC(=O)C4CC4)o3)c3ccccc3n2)cc1OC,6.83 µM
20,CC(C)(C)NC(=O)c1cc(NC(=O)c2cccs2)cc(NC(=O)c2cccs2)c1,> 79 µM (inactive)
21,O=C(COC(=O)Cc1n[nH]c(=O)c2ccccc12)Nc1c(Br)cc([N+](=O)[O-])cc1Br,> 79 µM (inactive)
22,O=C(CCc1nc2ccccc2c(=O)[nH]1)NNC(=O)c1ccc(F)cc1,> 79 µM (inactive)
23,COc1cc(-n2c(=O)c3ccccc3n(Cc3cc(=O)n4ccccc4n3)c2=O)cc(OC)c1OC,> 79 µM (inactive)
24,OC1CCN(c2c3c(nc4cc(-c5cccc(F)c5)nn24)CCCC3)CC1,23.6 µM

row,Structure (SMILES),IC50
1,COC(=O)c1cc(OC)c(OC)cc1NC(=O)c1ccc(C)o1,25.9 µM
2,Cc1cccc(NC(=O)c2oc3ccc(S(=O)(=O)N4CCOCC4)cc3c2C)c1C,> 79 µM (inactive)
3,Nc1nc(-c2c[nH]c3ccccc23)cs1,> 79 µM (inactive)
4,O=C(COc1ccc([N+](=O)[O-])cc1)Nc1nc(-c2ccccn2)cs1,> 79 µM (inactive)
5,COC(=O)c1ccc(CSc2ccc3nnc(-c4cccc(F)c4)n3n2)o1,27.4 µM
6,O=C(CNC(=O)c1ccc(F)cc1)N/N=C/c1cc(Br)ccc1OC(=O)/C=C/c1ccco1,> 79 µM (inactive)
7,COc1cc(/C=c2\s/c(=C(/C#N)C(=O)N3CCCC3)n(-c3ccccc3)c2=O)ccc1O,25 µM
8,O=c1[nH]c2ccccc2n1CCCN1CCC(n2c(=O)[nH]c3cc(Cl)ccc32)CC1,> 79 µM (inactive)
9,COc1ccc(NC(=S)N(Cc2cccnc2)Cc2cc3cc(OC)c(OC)cc3[nH]c2=O)cc1,> 79 µM (inactive)
10,COc1cccc(OC)c1C(=O)Nc1cc(C)nn1-c1nc2ccccc2[nH]1,> 79 µM (inactive)
11,O=Cc1ccc(OCc2cccc(C(F)(F)F)c2)cc1O,28.1 µM
12,Cc1ccc(S(=O)(=O)N(C)C)cc1NC(=O)COC(=O)Cc1n[nH]c(=O)c2ccccc12,> 79 µM (inactive)
13,CCOC(=O)COc1cc(OCC(=O)OCC)c2c3c(c(=O)oc2c1)CCCC3,16.4 µM
14,COc1cc(C(=O)N/N=C/c2ccc(OC(=O)c3cccc(C)c3)c(OC)c2)ccc1O,> 79 µM (inactive)
15,CC(=O)N1CCN(c2ccccc2NC(=O)c2ccc(-c3cccc([N+](=O)[O-])c3)o2)CC1,5.88 µM
16,CCOc1ccc2ccccc2c1C(=O)N[C@@H]1C(=O)N2[C@@H]1SC(C)(C)[C@@H]2C(=O)O,47.1 µM (inactive)
17,Cc1cccc(NC(=O)c2cc(-c3ccco3)nc3ccccc23)n1,> 79 µM (inactive)
18,Cn1c(NCc2ccco2)nc2c1c(=O)n(Cc1ccc(Cl)cc1)c(=O)n2C,31.3 µM (inactive)
19,O=C(COC(=O)Cc1n[nH]c(=O)c2ccccc12)Nc1ccc(Cl)cn1,> 79 µM (inactive)
20,O=C1N[C@H](Cc2c[nH]c3ccccc23)COC(=O)[C@H](Cc2ccc(F)cc2)C/C=C\C[C@H]1CC(=O)N(CCO)Cc1ccccc1,17.6 µM
21,O=C(Nc1nc(-c2ccccn2)cs1)c1cc(S(=O)(=O)N2CCOCC2)ccc1F,> 79 µM (inactive)
22,COc1ccc(-c2cc(NC=O)c3ncc(-c4cccc(C(C)=O)c4)n3c2)cc1,> 79 µM (inactive)
23,CC(C)OCCCNC(=O)CCC(=O)NNc1nc2ccccc2c2nc(-c3ccccc3)nn12,> 79 µM (inactive)
24,O=C(COc1ccc(F)cc1)Nc1nc(-c2ccccn2)cs1,> 79 µM (inactive)

row,Structure (SMILES),IC50
1,COC(=O)C1=C(C)N(CCc2ccc(OC)cc2)C(=O)C1,39.4 µM (inactive)
2,O=c1[nH]c2cccc(Cl)c2c2ccccc12,> 79 µM (inactive)
3,O=C1NC(c2cccs2)Nc2ccccc21 (centres undefined),> 79 µM (inactive)
4,O=C(COC(=O)Cn1[nH]c(=O)c2ccccc2c1=O)Nc1ncc(Cl)cc1Cl,> 79 µM (inactive)
5,COc1ccc(-c2ccc(Nc3ccc(S(=O)(=O)N4CCCC4)cc3)nn2)cc1OC,25 µM
6,CN(CC(=O)Nc1cccc(F)c1)C(=O)CCc1nc2ccccc2c(=O)[nH]1,> 79 µM (inactive)
7,c1coc(-c2nnc3sc(-c4cccs4)nn23)c1,> 79 µM (inactive)
8,CCOc1ccc(NC(=O)CN(C)C(=O)Cc2n[nH]c(=O)c3ccccc23)cc1OCC,> 79 µM (inactive)
9,Cn1c(=O)[nH]c(=O)c2c1nc(NCCc1ccccc1)n2CC(O)COc1ccccc1 (centres undefined),> 79 µM (inactive)
10,O=c1[nH]c2cc(F)ccc2c2ccc(F)cc12,73.6 µM (inactive)
11,Cc1ccc(N=Cc2cc(Br)cc(Cl)c2O)cc1,> 79 µM (inactive)
12,O=c1c(O)c(-c2ccccc2)oc2cc(O)ccc12,> 79 µM (inactive)
13,CC(=O)c1cccc(NC(=O)Nc2ccc3c(c2)N(C)C(=O)CS3)c1,> 79 µM (inactive)
14,CN(C)C(=O)c1ccc(-c2n[nH]c(=O)c3ccccc23)cc1,> 79 µM (inactive)
15,Cc1cccc(NC(=O)c2nc[nH]c2C(=O)NCCCCCCNC(=O)c2[nH]cnc2C(=O)Nc2cccc(C)c2)c1,> 79 µM (inactive)
16,CC(C)c1ccc(S(=O)(=O)N2CCN(CC(=O)c3ccc(O)c(O)c3)CC2)cc1,21.3 µM
17,CCn1c(/C=N/NC(=O)c2ccc(OC)cc2)nc2ccccc21,> 79 µM (inactive)
18,COc1cc(-c2cc(NC=O)c3ncc(-c4ccc(C(C)=O)cc4)n3c2)cc(OC)c1OC,> 79 µM (inactive)
19,Cn1ncc(Cl)c1C(=O)N/N=C/c1ccccn1,> 79 µM (inactive)
20,C[C@H](CO)N1C[C@H](C)[C@@H](CN(C)S(=O)(=O)c2cccs2)Oc2ccc(NC(=O)Nc3ccccc3)cc2C1=O,28.2 µM
21,COc1nc(N/N=C/c2cc3c(cc2Br)OCO3)nc(N2CCOCC2)n1,15.7 µM
22,CC(=O)Nc1cccc(-c2cc(NC(C)=O)c3ncc(-c4cccc(C(C)=O)c4)n3c2)c1,> 79 µM (inactive)
23,Cc1ccccc1C(C(=O)NCc1ccccc1)N(Cc1ccco1)C(=O)c1ccccn1 (centres undefined),23.9 µM
24,CCOC(=O)CNC(=O)CSc1nc2nc(C)c(Br)cc2[nH]1,> 79 µM (inactive)

row,Structure (SMILES),IC50
1,CCCNC(=O)c1c(N)n(-c2cccc(OC)c2)c2nc3ccccc3nc12,> 79 µM (inactive)
2,O=C(COC(=O)CCc1nc2ccccc2c(=O)[nH]1)NC(c1ccccc1)c1ccccc1,> 79 µM (inactive)
3,O=C(O)c1ccc2c(c1)S(=O)(=O)c1cc(N3CCN(c4cnccn4)CC3)ccc1C2=O,> 79 µM (inactive)
4,Fc1ccc(NC(=S)Nc2ccc3nccnc3c2)cc1,> 79 µM (inactive)
5,Cc1cc(C(=O)N/N=C/c2cc(Br)ccc2OC(=O)c2ccccc2Cl)n[nH]1,> 79 µM (inactive)
6,COc1ccc(Cc2n[nH]c(=O)c3ccccc23)cc1OC,> 79 µM (inactive)
7,CCOC(=O)CSc1nc2ccccc2c(=O)[nH]1,> 79 µM (inactive)
8,COc1ccccc1NS(=O)(=O)c1cc(NC(=O)CCc2nc3ccccc3c(=O)[nH]2)ccc1C,11.4 µM
9,O=C(Nc1cccc(/C=C/c2ccccn2)c1)c1ccc(-n2cncn2)cc1,42.9 µM (inactive)
10,O=C(Nc1cccc2cccnc12)c1ccc2sc([C@H]3C[C@H](O)[C@@H](CO)O3)nc2c1,14.3 µM
11,Cc1ccc(-c2nn3c(C)nnc3s2)cc1NC(=O)COc1ccc(Cl)cc1,> 79 µM (inactive)
12,CCOc1ccc(NC(=O)c2cc3c(C)nc4ccccc4c3o2)cc1,17.1 µM
13,O=[N+]([O-])c1ccc(-c2nc(Nc3ccc(O)cc3)c3ccccc3n2)cc1,> 79 µM (inactive)
14,Cc1ccc(-c2n[nH]c(=O)c3ccccc23)cc1S(=O)(=O)NCCN1CCOCC1,> 79 µM (inactive)
15,O=C(COC(=O)CCc1nc2ccccc2c(=O)[nH]1)Nc1ccc2c(c1)OCO2,> 79 µM (inactive)
16,Cc1ccc(CN(C)C(=O)COC(=O)CSc2ccc(C(N)=O)cc2[N+](=O)[O-])cc1,31.3 µM (inactive)
17,Cc1ccc(-n2cc(-c3ccccc3)c3c(N4CCOCC4)ncnc32)cc1,> 79 µM (inactive)
18,COc1cc(CN2C[C@@H](CO)O[C@@H](n3cnc4c(Nc5ccccc5)ncnc43)C2)cc(OC)c1OC,12.7 µM
19,COc1ccc2[nH]c(=O)c(CN(CC3CCCO3)S(=O)(=O)c3ccccc3F)cc2c1 (centres undefined),15.9 µM
20,O=C(Nc1cccc(Cl)c1)c1nc[nH]c1C(=O)NCCCNC(=O)c1[nH]cnc1C(=O)Nc1cccc(Cl)c1,> 79 µM (inactive)
21,CC1Nc2ncnc(N3CCN(c4ccccc4)CC3)c2N(Cc2ccc(Cl)cc2)C1=O (centres undefined),12.7 µM
22,CCOC(=O)CNS(=O)(=O)c1cc(-c2n[nH]c(=O)c3ccccc23)ccc1C,> 79 µM (inactive)
